The values that follow come from patent US12173088B2, “Anti-microbial peptides” (priority 2018, dated 2024).

Converted amounts (≈) assume the structure as drawn. Like-named read-outs stand apart in the source and are kept apart here. Peptide text beside a SMILES is read from it. Where only a bound is given, the exact number is not on record here.

Data set [1] deals with A. baumannii B26-16. As to the kind of experiment: microbe, parasite or virus in culture. The format is cell-based, Acinetobacter baumannii. The procedure, abridged: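 Broth microdilution in tryptic soy broth: log-phase cultures diluted to 0.001 OD600 and exposed to peptide dilutions overnight at 37 °C, growth read at 630 nm. For S. aureus USA300, medium effects tested at pH 6.8, 7.2 and 8.0, with 150 mM NaCl, or with 5–10% human serum, mouse plasma or peritoneal fluid.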

Data set [2] in a line: In vivo toxicity after i.p. injection. Further details: species or system mice. Conditions: for Animal death: 10, 20, and 30 mg/kg i.p., five-day experiment; for Mobility: higher peptide doses. The protocol: Because DFT561 had crossed multiple in vitro barriers (Table 5), its in vivo toxicity and efficacy was tested. A well-established neutropenic mouse model was used, which is often utilized to evaluate the efficacy of antibiotics and peptide mimics (Ambrose, et al. (2012) Clin. Infect. Dis., 54(3):S220-8; Radzishevsky, et al. (2007) Nat. Biotechnol., 25:657-659). In this model, the effect of immune cells on bacterial killing is minimized via two injections of cyclophosphamide before infection (FIG. 5). To evaluate the safety of the peptide in vivo, the toxicity of DFT561 injected intraperitoneally (i.p.) was compared at […] per mouse. […] In addition, alanine transaminase normally resides in serum and tissues but can be released after liver injury. Differences in a quantitative alanine transaminase assay of liver homogenates from mice treated at 0, 10, and 20 mg/kg was not observed.
Neutropenic mice are widely accepted for systemic efficacy evaluation of antibiotics (Zhao, et al. (2016) Bioorg. Med. Chem. 24:6390-6400; Craig, et al. (1991) J. Antimicrob. Chemother., 27:29-40). This model enables better evaluation of compound potency by minimizing the bacterial clearance effect of the immune system. Using this model, the efficacy of horine against S. aureus USA300 and verine against K. pneumonia E406-17 was tested. C57BL/6 mice were made neutropenic by two injections of cyclophosphamide intraperitoneally (i.p.). The acute toxicity of horine and verine was investigated by i.p. injecting them into mice at 10, 20, and 30 mg/kg body weight.

In data set [3] the test system is S. aureus USA300. As to the kind of experiment: microbe, parasite or virus in culture. The format is cell-based, Staphylococcus aureus. The essentials: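 Broth microdilution: log-phase cultures in tryptic soy broth diluted to OD600 0.001, exposed to two-fold diluted peptides at 37° C overnight, growth read at 630 nm. Medium effects on S. aureus USA300 tested with up to 200 mM NaCl, 2 mM CaCl2, 5-10% human serum, mouse plasma, fluids or tissue homogenate supernatants.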

Data set [4] deals with P. aeruginosa E411-17. As to the kind of experiment: microbe, parasite or virus in culture. The format is cell-based, Pseudomonas aeruginosa. The procedure, abridged:
(§1)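 Peptides were serially diluted two-fold against bacteria grown in tryptic soy broth to log phase (OD600 ≈0.5), then seeded at OD600 0.001. Plates were held overnight at 37° C and read at 630 nm. USA300 was also tested at pH 6.8, 7.2 and 8.0, with 150 mM NaCl or 5-10% serum, plasma or peritoneal fluid.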

Data set [5] concerns K. pneumoniae E406-17. Description: microbe, parasite or virus in culture. In kind it is cell-based, Klebsiella pneumoniae. The essentials:
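Broth microdilution in tryptic soy broth: log-phase cultures (OD600 ≈0.5) diluted to OD600 0.001, given two-fold peptide dilutions, incubated overnight at 37° C. Growth read at 630 nm.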

Data set [6] deals with E. faecium V286-17 (VRE). Description: microbe, parasite or virus in culture. In kind it is cell-based, Enterococcus faecium. The essentials:
as §1

Data set [7] has as its system E. coli E423-17. As to the kind of experiment: microbe, parasite or virus in culture. The format is cell-based, Escherichia coli. The essentials:
as §1

For data set [8], the system named is S. aureus M838-17 (MRSA). As to the kind of experiment: microbe, parasite or virus in culture. To be noted: for MIC: read-out: MIC S. aureus M838-17 (MRSA). The format is cell-based, Staphylococcus aureus. The procedure, abridged:
as §1

The mark [9] stands for this setting: E411-17, read-out: MIC P. aeruginosa E411-17.
The mark [10] stands for this setting: E406-17, read-out: MIC K. pneumoniae E406-17.
[11] abbreviates: E423-17, read-out: MIC E. coli E423-17.

As for `CC(C)C[C@H](NC(=O)[C@H](Cc1c[nH]c2ccccc12)NC(=O)[C@H](Cc1c[nH]c2ccccc12)NC(=O)[C@@H](N)Cc1c[nH]c2ccccc12)C(=O)N[C@@H](CCCNC(=N)N)C(=O)N[C@@H](CCCNC(=N)N)C(=O)N[C@@H](CCCNC(=N)N)C(=O)N[C@@H](Cc1c[nH]c2ccccc12)C(N)=O` [Horine, WWWLRRRW] (H-WWWLRRRW-NH2; N-terminus and C-terminus assumed), the MIC in data set [1] (B26-16, read-out: MIC A. baumannii B26-16) is recorded as 32 µM (≈ 43 µg/mL); in data set [3] (USA300, read-out: MIC S. aureus USA300 (MRSA)), 4 µM (≈ 5.37 µg/mL); in data set [4] (setting [9]), above 32 µM; in data set [5] (setting [10]), above 32 µM; in data set [6] (V286-17 (VRE), read-out: MIC E. faecium V286-17 (VRE)), 2 µM (≈ 2.69 µg/mL); in data set [7] (setting [11]) it was above 32 µM. In addition, in data set [2], the Animal death result is “no animal death”. Besides, in data set [2], the Mobility entry is listed as “initial short-term reduced mobility”.
Turning to `CC(C)C[C@H](NC(=O)[C@H](CC(C)C)NC(=O)[C@H](CCCCN)NC(=O)[C@H](CC(C)C)NC(=O)CNC(=O)[C@H](CC(C)C)NC(=O)[C@H](CO)NC(=O)[C@H](CC(C)C)NC(=O)[C@H](CC(C)C)NC(=O)[C@H](CC(C)C)NC(=O)[C@H](CCCCN)NC(=O)[C@H](CC(C)C)NC(=O)CN)C(N)=O` [DFT561, GLKLLLSLGLKLL] (H-GLKLLLSLGLKLL-NH2; N-terminus and C-terminus assumed), the “Differences in alanine transaminase assay of liver homogenates” value in data set [2] (0, 10, and 20 mg/kg) is on record as “not observed”. The “Toxicity (conclusion)” value in data set [2] (5 mg/kg) is recorded as “not toxic”. Besides, the Behaviour of mice entry was “behaved normal” in data set [2] (10 mg/kg i.p.) and “reduced activity for 30 minutes” in data set [2] (20 or 40 mg/kg i.p.). In addition, the Weight losses result in data set [2] (10, 20, 40 mg/kg i.p.) is on record as “statistically insignificant”. For the same compound, the MIC is 3.1 µM (≈ 4.28 µg/mL) in data set [8] (M838-17); 1.6 µM (≈ 2.21 µg/mL) in data set [3] (USA300); 3.1 µM (≈ 4.28 µg/mL) in data set [3] (USA300, pH 6.8); 1.6 µM (≈ 2.21 µg/mL) in data set [3] (USA300, pH 7.4); 1.6 µM (≈ 2.21 µg/mL) in data set [3] (USA300, pH 8); above 50 µM in data set [4] (setting [9]). The MIC in data set [5] (setting [10]) and in data set [7] (setting [11]) was above 50 µM in each case. Also, in data set [3] (USA300), the “MIC SA (S. aureus USA300)” value stood at 1.6 µM (≈ 2.21 µg/mL). The “MIC E. faecium V286-17 (VRE)” value in data set [6] (V286-17 (VRE)) fell in the range of 3.1 to 6.25 µM.
In the case of `CN[C@H](CC(C)C)C(=O)N[C@H]1C(=O)N[C@@H](CC(N)=O)C(=O)N[C@H]2C(=O)N[C@H]3C(=O)N[C@H](C(=O)N[C@H](C(=O)O)c4cc(O)cc(O)c4-c4cc3ccc4O)[C@H](O)c3ccc(c(Cl)c3)Oc3cc2cc(c3O[C@@H]2O[C@H](CO)[C@@H](O)[C@H](O)[C@H]2O[C@H]2C[C@](C)(N)[C@H](O)[C@H](C)O2)Oc2ccc(cc2Cl)[C@H]1O` [Vancomycin], the MIC was above 8 µM in data set [1] (Acinetobacter baumannii, B2616, read-out: MIC A. baumannii B26-16); 0.78 µM (≈ 1.13 µg/mL) in data set [8] (Staphylococcus aureus, MRSA); 1 µM (≈ 1.45 µg/mL) in data set [3] (Staphylococcus aureus, MRSA / USA300, read-out: MIC S. aureus USA300 (MRSA)); above 8 µM in data set [4] (Pseudomonas aeruginosa, E41117, read-out: MIC P. aeruginosa E411-17); above 8 µM in data set [5] (Klebsiella pneumoniae, E40617, read-out: MIC K. pneumoniae E406-17); at least 12.5 µM in data set [6] (Enterococcus faecium, VRE, read-out: MIC E. faecium V286-17 (VRE), Table 7). The MIC in data set [6] (Enterococcus faecium, VRE, read-out: MIC E. faecium V286-17 (VRE), Table 14) was above 8 µM; in data set [7] (Escherichia coli, E42317, read-out: MIC E. coli E423-17), above 8 µM.
Regarding `CC(C)[C@H](NC(=O)[C@H](Cc1c[nH]c2ccccc12)NC(=O)[C@H](Cc1c[nH]c2ccccc12)NC(=O)[C@H](Cc1c[nH]c2ccccc12)NC(=O)[C@H](Cc1c[nH]c2ccccc12)NC(=O)[C@H](CCCNC(=N)N)NC(=O)[C@H](CCCNC(=N)N)NC(=O)[C@@H](N)CCCNC(=N)N)C(N)=O` [Verine, RRRWWWWV] (H-RRRWWWWV-NH2; N-terminus and C-terminus assumed), the MIC in data set [1] (Table 14, read-out: MIC A. baumannii B26-16) is 8 µM (≈ 10.6 µg/mL); in data set [3] (Table 17, strain USA300) it was 2 to 4 µM; in data set [5] (Table 14, read-out: MIC K. pneumoniae E406-17), 8 µM (≈ 10.6 µg/mL); in data set [6] (Table 14, read-out: MIC E. faecium V286-17 (VRE)), 2 µM (≈ 2.66 µg/mL); in data set [7] (Table 14, read-out: MIC E. coli E423-17), 2 µM (≈ 2.66 µg/mL). For the same compound, the Animal death entry in data set [2] was “no animal death”. Further, the Mobility entry in data set [2] is given as “initial short-term reduced mobility”. In addition, the “MIC S. aureus M838-17” value in data set [8] (Table 12) stood at 3.1 µM (≈ 4.12 µg/mL). Besides, the “MIC S. aureus USA300 (MRSA)” value in data set [3] (Table 14) lay in the range of 2 to 4 µM. Also, in data set [4] (Table 12), the “MIC P. aeruginosa 411-17” value was 12.5 µM (≈ 16.6 µg/mL). Also, the “MIC P. aeruginosa E411-17” value in data set [4] (Table 14) fell in the range of 4 to 8 µM. The “MIC K. pneumonia 406-17” value in data set [5] (Table 12) was determined as 6.25 µM (≈ 8.31 µg/mL).
